Assay results taken from US12649750B2, “Macrocyclic compounds, compositions, and methods of using thereof” (Sionna Therapeutics Inc., priority 2022, dated 2026).

How the values were obtained:
NBD1 = target: T1, NBD1 (Homo sapiens, UniProt P13569); assay: Aggregation analysis using differential static light scattering (DSLS), thermal stability of NBD1 (ΔTagg); assay type: binding; conditions: ΔTagg versus DMSO control, NBD1 0.2 mg/ml
T1 construct: Purified recombinant NBD1 was produced using previously described methods; made in house
In short: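 Differential static light scattering read from 25° C. to 70° C. every 0.5° C., ramp 1° C./min, on recombinant NBD1 (0.2 mg/ml; Tris/NaCl/MgCl2 buffer with 2 mM ATP, 2 mM DTT, pH 7.6, 1% glycerol) plus compound. Reported ΔTagg subtracts averaged DMSO Tagg from inflection-point Tagg; categories A ≤5, B >5-10, C >10-25° C.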

CFTR = target: T2, CFTR (Homo sapiens, UniProt P13569, DEL508-508); assay: TECC24 AUC fold over DMSO @10 μM, CFTR-mediated transepithelial chloride transport in CF-HBE cells; assay type: cell-based; conditions: test agent AUC divided by DMSO vehicle AUC, primary CF-HBE cells, ΔF508 homozygous donor, 48 hours incubation
T2 construct: Primary human bronchial epithelial cells from a ΔF508 homozygous CF donor; host or cells: primary human bronchial epithelial cells (CF-HBE), ΔF508 homozygous donor
In short: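 ΔF508-homozygous primary bronchial epithelial cells incubated 48 h at 36.5° C with compound (10 μM) in IL-13-containing medium, then TECC24 current-clamp recording in pH 7.4 Hepes saline with benzamil 10 μM, forskolin 10 μM, then CFTR inhibitor-172 20 μM. Equivalent Cl− current AUC between forskolin and inhibitor, expressed as fold over DMSO.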

T1 sequence (P13569 423-646 limits assumed): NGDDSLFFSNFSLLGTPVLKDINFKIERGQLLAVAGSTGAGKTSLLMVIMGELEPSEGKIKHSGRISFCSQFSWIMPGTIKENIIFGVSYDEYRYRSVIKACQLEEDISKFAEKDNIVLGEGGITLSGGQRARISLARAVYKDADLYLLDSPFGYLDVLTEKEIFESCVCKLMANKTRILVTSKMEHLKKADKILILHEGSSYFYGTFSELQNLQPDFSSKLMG
T2 sequence (P13569 with tags, fused parts or gaps DEL508-508): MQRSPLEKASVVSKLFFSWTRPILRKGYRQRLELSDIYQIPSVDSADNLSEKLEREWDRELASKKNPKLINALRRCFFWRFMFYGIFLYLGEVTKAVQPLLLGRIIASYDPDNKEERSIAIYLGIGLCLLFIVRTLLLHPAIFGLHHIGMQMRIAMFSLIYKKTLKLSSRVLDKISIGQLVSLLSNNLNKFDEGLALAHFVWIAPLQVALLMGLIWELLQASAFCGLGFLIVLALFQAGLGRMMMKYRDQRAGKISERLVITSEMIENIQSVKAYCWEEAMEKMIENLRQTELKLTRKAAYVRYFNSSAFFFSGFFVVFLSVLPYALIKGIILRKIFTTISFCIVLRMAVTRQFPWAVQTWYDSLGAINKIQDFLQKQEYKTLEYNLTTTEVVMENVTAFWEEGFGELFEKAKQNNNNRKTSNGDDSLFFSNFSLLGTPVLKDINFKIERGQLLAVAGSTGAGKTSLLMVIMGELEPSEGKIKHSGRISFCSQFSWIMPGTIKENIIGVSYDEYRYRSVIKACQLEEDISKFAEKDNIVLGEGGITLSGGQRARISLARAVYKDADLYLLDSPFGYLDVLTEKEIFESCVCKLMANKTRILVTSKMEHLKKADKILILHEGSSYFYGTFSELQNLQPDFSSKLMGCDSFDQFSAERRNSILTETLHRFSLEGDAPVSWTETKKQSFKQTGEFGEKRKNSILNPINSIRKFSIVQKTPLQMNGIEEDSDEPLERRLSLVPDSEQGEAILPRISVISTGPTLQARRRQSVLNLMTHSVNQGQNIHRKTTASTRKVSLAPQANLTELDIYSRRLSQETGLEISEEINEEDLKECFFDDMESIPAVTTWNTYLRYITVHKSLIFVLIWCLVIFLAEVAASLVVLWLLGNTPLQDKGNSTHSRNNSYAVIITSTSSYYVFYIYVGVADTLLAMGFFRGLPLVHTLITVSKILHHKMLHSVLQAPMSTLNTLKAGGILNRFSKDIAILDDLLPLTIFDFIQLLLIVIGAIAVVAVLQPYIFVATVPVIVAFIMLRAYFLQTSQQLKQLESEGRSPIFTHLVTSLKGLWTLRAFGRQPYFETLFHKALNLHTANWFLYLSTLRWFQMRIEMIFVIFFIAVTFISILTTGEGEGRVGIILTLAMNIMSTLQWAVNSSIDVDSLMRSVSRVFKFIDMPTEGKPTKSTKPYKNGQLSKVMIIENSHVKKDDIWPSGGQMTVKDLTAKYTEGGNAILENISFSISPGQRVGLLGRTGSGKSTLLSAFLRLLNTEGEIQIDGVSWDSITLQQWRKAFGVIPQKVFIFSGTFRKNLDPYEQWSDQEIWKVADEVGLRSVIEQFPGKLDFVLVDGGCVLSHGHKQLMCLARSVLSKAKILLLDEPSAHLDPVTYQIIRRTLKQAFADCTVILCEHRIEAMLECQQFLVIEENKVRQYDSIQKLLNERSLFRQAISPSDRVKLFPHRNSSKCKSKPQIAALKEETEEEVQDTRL

| SMILES | DSLS 3D (100 μM ΔT) (NBD1) | TECC (AUC, 10 μM) (CFTR) |
| --- | --- | --- |
| CC(Cc1cccc(C2(C)CCCC3(CC3)CS(=O)(=O)CCc3c(c(F)cc4[nH]ccc34)Oc3ccc(F)c(c3)-c3nc2nn3C)c1)C(=O)O (single isomer, unassigned) [Compound 13B, 3-[3-(22,28-difluoro-3,6-dimethyl-12,12-dioxo-spiro[24-oxa-12lambda6-thia-3,4,19,30-tetrazapentacyclo[23.3.1.12,5.015,23.016,20]triaconta-1(29),2(30),4,15,17,20,22,25,27-nonaene-10,1′-cyclopropane]-6-yl)phenyl]-2-methyl-propanic Acid] | A (an ΔTagg value less than or equal to 5 °C is marked “A”) | C (a value between 20 and 80 is marked “C”) |
| [2H]C([2H])([2H])C1(c2cccc(/C=C/C(=O)O)c2)CCCC(C)(C)CS(=O)(=O)CCc2c(c(F)cc3[nH]ccc23)Oc2ccc(F)c(c2)-c2nc1nn2C (single isomer, unassigned) [Compound 15A, (E)-3-[3-[22,28-difluoro-3,10,10-trimethyl-12,12-dioxo-6-(trideuteriomethyl)-24-oxa-12lambda6-thia-3,4,19,30-tetrazapentacyclo[23.3.1.12,5.015,23.016,20]triaconta-1(29),2(30),4,15,17,20,22,25,27-nonaen-6-yl]phenyl]prop-2-enoic Acid] | C (a value greater than 10 °C and less than or equal to 25 °C is marked “C”) | A (a TECC value less than 12 is marked “A”) |
| [2H]C([2H])([2H])C1(c2cccc(/C=C/C(=O)O)c2)CCCC(C)(C)CS(=O)(=O)CCc2c(c(F)cc3[nH]ccc23)Oc2ccc(F)c(c2)-c2nc1nn2C (single isomer, unassigned) [Compound 15B, (E)-3-[3-[22,28-difluoro-3,10,10-trimethyl-12,12-dioxo-6-(trideuteriomethyl)-24-oxa-12lambda6-thia-3,4,19,30-tetrazapentacyclo[23.3.1.12,5.015,23.016,20]triaconta-1(29),2(30),4,15,17,20,22,25,27-nonaen-6-yl]phenyl]prop-2-enoic Acid] | B (a value above 5 °C and less than or equal to 10 °C is marked “B”) | A (a TECC value less than 12 is marked “A”) |
| [2H]C([2H])([2H])C1(c2cccc(/C=C(\C)C(=O)O)c2)CCCC(C)(C)CS(=O)(=O)CCc2c(c(F)cc3[nH]ccc23)Oc2ccc(F)c(c2)-c2nc1nn2C (single isomer, unassigned) [Compound 16A, (E)-3-[3-[22,28-difluoro-3,10,10-trimethyl-12,12-dioxo-6-(trideuteriomethyl)-24-oxa-12lambda6-thia-3,4,19,30-tetrazapentacyclo[23.3.1.12,5.015,23.016,20]triaconta-1(29),2(30),4,15,17,20,22,25,27-nonaen-6-yl]phenyl]-2-methyl-prop-2-enoic acid] | A (an ΔTagg value less than or equal to 5 °C is marked “A”) | A (a TECC value less than 12 is marked “A”) |
| [2H]C([2H])([2H])C1(c2cccc(/C=C(\C)C(=O)O)c2)CCCC(C)(C)CS(=O)(=O)CCc2c(c(F)cc3[nH]ccc23)Oc2ccc(F)c(c2)-c2nc1nn2C (single isomer, unassigned) [Compound 16B, (E)-3-[3-[22,28-difluoro-3,10,10-trimethyl-12,12-dioxo-6-(trideuteriomethyl)-24-oxa-12lambda6-thia-3,4,19,30-tetrazapentacyclo[23.3.1.12,5.015,23.016,20]triaconta-1(29),2(30),4,15,17,20,22,25,27-nonaen-6-yl]phenyl]-2-methyl-prop-2-enoic acid] | C (a value greater than 10 °C and less than or equal to 25 °C is marked “C”) | A (a TECC value less than 12 is marked “A”) |
